Data published in ChEMBL document CHEMBL4419178, “Yap1 inhibitors that target the interaction of yap1 with oct4” (2018).
Activity calls are given as the source filed them. The rule behind the calls is not given here.

Columns and labels:
[1] = molecular target: Transcriptional coactivator YAP1 (Homo sapiens) (UniProt P46937); assay: Inhibition of YAP1 (unknown origin) assessed as disruption in YAP1/OCT4 interaction at 5 uM by ELISA relative to control
[2] = molecular target: Transcriptional coactivator YAP1 (Homo sapiens) (UniProt P46937); assay: Inhibition of YAP1 (unknown origin) assessed as disruption in YAP1/OCT4 interaction at 50 uM by cell based assay
[3] = molecular target: Transcriptional coactivator YAP1 (Homo sapiens) (UniProt P46937); assay: Inhibition of YAP1 in human A549 cells assessed as disruption in YAP1/OCT4 co-localization at 25 uM incubated for 48 hrs by double immunofluorescence based assay; format: cell-based
[4] = molecular target: Transcriptional coactivator YAP1 (Homo sapiens) (UniProt P46937); assay: Inhibition of YAP1 in human NCI-H1650 cells assessed as disruption in YAP1/OCT4 interaction at 20 to 50 uM incubated for 48 hrs by proximity ligation assay; format: cell-based
NCI-H1650 [5] = assay: Inhibition of YAP1 in human NCI-H1650 cells assessed as disruption in YAP1/TEAD2 interaction at 20 to 50 uM incubated for 48 hrs by proximity ligation assay; format: cell-based
NCI-H1650 [6] = assay: Inhibition of self-renewal capacity in stem-like side-population cells of human NCI-H1650 cells assessed as reduction in number of spheres at 50 uM incubated for 10 days by sphere formation assay; format: functional, cell-based
NCI-H1650 [7] = assay: Inhibition of self-renewal capacity in stem-like side-population cells of human NCI-H1650 cells assessed as reduction in number of spheres at 1 to 20 uM incubated for 10 days by sphere formation assay; format: functional, cell-based
NCI-H1650 [8] = assay: Cytotoxicity in human NCI-H1650 cells assessed as induction of cell killing in presence of cancer associated fibroblasts at 20 to 50 uM incubated for 24 to 48 hrs by cytotracker-red/green dye staining based immunofluorescence microscopy; format: functional
[9] = Cytotoxicity in human cancer associated fibroblasts at 20 to 50 uM incubated for 24 to 48 hrs by cytotracker-red/green dye staining based immunofluorescence microscopy
NCI-H1650 [10] = assay: Inhibition of self-renewal capacity in stem-like side-population cells of human NCI-H1650 cells assessed as reduction in number of spheres at 5 to 50 uM incubated for 10 days by sphere formation assay; format: functional, cell-based
NCI-H146 = assay: Inhibition of self-renewal capacity in methotrexate insensitive stem-like side-population cells of human NCI-H146 cells assessed as reduction in number of spheres at 2 uM incubated for 3 days after 7 days methotrexate exposure by sphere formation assay; format: functional
[11] = molecular target: Transcriptional coactivator YAP1 (Homo sapiens) (UniProt P46937); assay: Inhibition of YAP1 (unknown origin) assessed as disruption in YAP1/OCT4 interaction at 10 uM by ELISA relative to control

Chain of Transcriptional coactivator YAP1 (Homo sapiens) (P46937 whole entry): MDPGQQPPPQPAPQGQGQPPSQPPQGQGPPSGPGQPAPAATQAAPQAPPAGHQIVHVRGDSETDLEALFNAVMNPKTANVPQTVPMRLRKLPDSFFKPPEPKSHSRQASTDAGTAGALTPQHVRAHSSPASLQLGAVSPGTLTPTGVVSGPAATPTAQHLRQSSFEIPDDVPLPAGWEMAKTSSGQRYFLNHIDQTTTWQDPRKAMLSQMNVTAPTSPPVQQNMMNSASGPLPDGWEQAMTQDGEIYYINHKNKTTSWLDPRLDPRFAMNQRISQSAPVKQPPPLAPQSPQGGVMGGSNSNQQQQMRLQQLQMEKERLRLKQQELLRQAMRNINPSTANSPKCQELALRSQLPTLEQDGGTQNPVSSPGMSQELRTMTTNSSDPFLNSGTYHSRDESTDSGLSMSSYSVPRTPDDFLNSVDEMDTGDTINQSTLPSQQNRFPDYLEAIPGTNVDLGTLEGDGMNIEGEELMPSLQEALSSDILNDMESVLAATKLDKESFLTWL

SMILES: CC(C)(C)OC(=O)N1CCC(CC(=O)N[C@@H](Cc2ccc(OCc3ccccc3)cc2)C(=O)O)CC1
- inhibition [1]: 75%
- inhibition [2]: 74%

SMILES: COCCn1c2nc(=O)n(-c3ccccc3)c(=O)c-2nc2ccccc21
- inhibition [3]: Active
- inhibition [4]: Active
- inhibition (NCI-H1650 [5]): Active
- inhibition (NCI-H1650 [6]): Active
- inhibition (NCI-H1650 [7]): Active
- Activity (NCI-H1650 [8]): Active
- Activity [9]: Non-Toxic

SMILES: CCOc1ccc(CCC(=O)N2CCC(CC(=O)N[C@@H](Cc3ccc(OCc4ccccc4)cc3)C(=O)OC)CC2)cc1
- inhibition (NCI-H1650 [7]): Active

SMILES: O=C(CC1CCN(C(=O)CCc2cccc(F)c2)CC1)N[C@@H](Cc1ccc(OCc2ccccc2)cc1)C(=O)O
- inhibition (NCI-H1650 [10]): Active

SMILES: NC(=O)[C@H](Cc1ccc(OCc2ccccc2)cc1)NC(=O)CC1CCN(C(=O)CCc2ccccc2)CC1
- inhibition (NCI-H146): Active

SMILES: COC(=O)[C@H](Cc1ccc(OCc2ccccc2)cc1)NC(=O)CC1CCN(Cc2ccccc2)CC1
- inhibition [11]: 57%
- inhibition [2]: 70%

SMILES: Oc1ccccc1/N=C/c1c(O)ccc2ccccc12
- inhibition [3]: Active
- inhibition [4]: Active
- inhibition (NCI-H1650 [5]): Active
- inhibition (NCI-H1650 [6]): Active
- inhibition (NCI-H1650 [10]): Active
- Activity (NCI-H1650 [8]): Active
- Activity [9]: Non-Toxic

SMILES: O=C(CC1CCN(C(=O)CCc2ccccc2)CC1)N[C@@H](Cc1ccc(OCc2ccccc2)cc1)C(=O)NCC1CC1
- inhibition [1]: 95%
- inhibition [2]: > 84%

SMILES: CC(C)NC(=O)[C@H](Cc1ccc(OCc2ccccc2)cc1)NC(=O)CC1CCN(C(=O)OC(C)(C)C)CC1
- inhibition [1]: 95%
- inhibition [2]: 83%

SMILES: O=C(CC1CCN(C(=O)CCc2ccccc2)CC1)N[C@@H](Cc1ccc(OCc2ccccc2)cc1)C(=O)NC1CCCC1
- inhibition [1]: 90%
- inhibition [2]: > 70%

SMILES: CCOc1ccc(CCC(=O)N2CCC(CC(=O)N[C@@H](Cc3ccc(OCc4ccccc4)cc3)C(=O)O)CC2)cc1
- inhibition [4]: Active
- inhibition (NCI-H1650 [5]): Active

SMILES: O=C(CC1CCN(C(=O)CCc2ccccc2)CC1)N[C@@H](Cc1ccc(OCc2ccccc2)cc1)C(=O)NC1CC1
- inhibition [1]: 90%
- inhibition [11]: 90%
- inhibition [2]: > 73%

SMILES: O=C(CC1CCN(C(=O)CCc2ccccc2)CC1)N[C@@H](Cc1ccc(OCc2ccccc2)cc1)C(=O)NC1CCC1
- inhibition [11]: 80%
- inhibition [2]: 65%

SMILES: COC(=O)[C@H](Cc1ccc(O)cc1)NC(=O)CC1CCN(C(=O)OC(C)(C)C)CC1
- inhibition [1]: 78%
- inhibition [2]: 70%
